Measurements taken from US20230227466A1, “SUBSTITUTED THIENOPYRIMIDINES THAT INTERACT WITH THE RAS SUPERFAMILY FOR THE TREATMENT OF CANCERS, INFLAMMATORY DISEASES, RASOPATHIES, AND FIBROTIC DISEASE” (SHY Therapeutics, LLC, priority 2020, published 2023).
Read-outs that look alike come from different tables or passages of the source.

What was measured:
KRas G12C mutant = target: T1, KRas G12C mutant (Homo sapiens, UniProt P01116, G12C); assay: Ras GTP binding domain inhibition assay (labeled-GTP competition, cell-free)
T1 construct: made in house
In short: (§1)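 His-tagged GTPases were coated at 10-30 μg/mL onto nickel plates overnight at 4° C, then exposed to compound (20 μM, or serial dilutions for IC50) in buffer with 1% DMSO for 3 h at room temperature, with or without 10-30 μg/mL His-Sos (556-1049) in the final hour. Cy3- or Cy5-GTP (100 nM, 45 min) binding was measured after washing.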

KRas G12D mutant = target: T2, KRas G12D mutant (Homo sapiens, UniProt P01116, G12D); assay: as above
T2 construct: made in house
In short: as §1

KRas Q61H mutant = target: T3, KRas Q61H mutant (Homo sapiens, UniProt P01116, Q61H); assay: as above
T3 construct: made in house
In short: as §1

[1] = system: MIA-PaCa-2 pancreatic cancer cell line (KRAS G12C); assay: Cell proliferation assay (CellTiter 96 Aqueous One); type: cell-based; settings: Homo sapiens; for IC50: MIA PaCa-2, MIA PaCa-2; for inhibition at 10 µM: MIA PaCa-2, read-out: % inh cell proliferation (10 μM) in MIA PaCa-2
In short: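 After overnight attachment, compounds are added (10 μM final or serial dilutions) and left 2–4 days, with viability then measured by MTS.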

KRas wild type = KRas wild type (Homo sapiens, UniProt P01116); assay: Ras GTP binding domain inhibition assay (labeled-GTP competition, cell-free); parameters: made in house
In short: as §1

Rac-1 = Rac-1 (Homo sapiens, UniProt P63000); assay: as above; parameters: made in house
In short: as §1

Rho-A = Rho-A (Homo sapiens, UniProt P61586); assay: as above; parameters: made in house
In short: as §1

[2] = with SOS, read-out: KRas G12C mutant + SOS: % inh.
[3] = without SOS, read-out: KRas G12C mutant: % inh.
[4] = with SOS, read-out: KRas G12D mutant + SOS: % inh.
[5] = without SOS, read-out: KRas G12D mutant: % inh.
[6] = with SOS, read-out: KRas Q61H mutant + SOS: % inh.
[7] = without SOS, read-out: KRas Q61H mutant: % inh.
[8] = with SOS, read-out: KRas wild type + SOS: % inh.
[9] = without SOS, read-out: KRas wild type: % inh.
[10] = with SOS, read-out: Rac-1 + SOS: % inh.
[11] = without SOS, read-out: Rac-1: % inh.
[12] = with SOS, read-out: Rho-A + SOS: % inh.
[13] = without SOS, read-out: Rho-A: % inh.

inhibition at 20 µM (KRas G12C mutant; [2]) [%]	inhibition at 20 µM (KRas G12C mutant; [3]) [%]	inhibition at 20 µM (KRas G12D mutant; [4]) [%]	inhibition at 20 µM (KRas G12D mutant; [5]) [%]	inhibition at 20 µM (KRas Q61H mutant; [6]) [%]	inhibition at 20 µM (KRas Q61H mutant; [7]) [%]	IC50 (KRas Q61H mutant; with SOS) [µM]	IC50 [1] [µM]	inhibition at 20 µM (KRas wild type; [8]) [%]	inhibition at 20 µM (KRas wild type; [9]) [%]	inhibition at 20 µM (Rac-1; [10]) [%]	inhibition at 20 µM (Rac-1; [11]) [%]	inhibition at 20 µM (Rho-A; [12]) [%]	inhibition at 20 µM (Rho-A; [13]) [%]	Structure (SMILES)	inhibition at 10 µM [1] [%]
1 to 25	1 to 25	0	0	1 to 25	1 to 25	> 10	> 10	1 to 25	0	1 to 25	0	0	1 to 25	CO[C@H]1CC[C@@H](Nc2nc(-c3nccn3C)nc3sc(-c4cc[nH]n4)c(-c4ccccc4)c23)C1 (racemic) [Example 1, Rac-N-((1R,3S)-3-methoxycyclopentyl)-2-(1-methyl-1H-imidazol-2-yl)-5-phenyl-6-(1H-pyrazol-3-yl)thieno[2,3-d]pyrimidin-4-amine]	0
26 to 50	26 to 50	26 to 50	51 to 75	26 to 50	26 to 50	> 10	> 10	1 to 25	26 to 50	26 to 50	26 to 50	26 to 50	26 to 50	NC(=O)c1nc(O)c2scc(-c3ccccn3)c2n1 [Compound 18, 4-Hydroxy-7-(pyridin-2-yl)thieno[3,2-d]pyrimidine-2-carboxamide]	0

Continued, compound first:

Structure (SMILES)	inhibition at 20 µM (KRas G12C mutant; [2]) [%]	inhibition at 20 µM (KRas G12C mutant; [3]) [%]	inhibition at 20 µM (KRas G12D mutant; [4]) [%]	inhibition at 20 µM (KRas G12D mutant; [5]) [%]	inhibition at 20 µM (KRas Q61H mutant; [6]) [%]	inhibition at 20 µM (KRas Q61H mutant; [7]) [%]	IC50 (KRas Q61H mutant; with SOS) [µM]	IC50 [1] [µM]	inhibition at 20 µM (KRas wild type; [8]) [%]	inhibition at 20 µM (KRas wild type; [9]) [%]	inhibition at 20 µM (Rac-1; [10]) [%]	inhibition at 20 µM (Rac-1; [11]) [%]	inhibition at 20 µM (Rho-A; [12]) [%]	inhibition at 20 µM (Rho-A; [13]) [%]	inhibition at 10 µM [1] [%]
CO[C@H]1CC[C@@H](Nc2nc(-c3nccn3C)nc3sc(-c4ccn(C(C)C)n4)c(-c4ccccc4)c23)C1 [Compound 5, 6-(1-Isopropyl-1H-pyrazol-3-yl)-N-((1R,3S)-3-methoxycyclopentyl)-2-(1-methyl-1H-imidazol-2-yl)-5-phenylthieno[2,3-d]pyrimidin-4-amine]	76 to 100	51 to 75	51 to 75	1 to 25	76 to 100	26 to 50	1 to 4.99	< 1	76 to 100	51 to 75	26 to 50	26 to 50	51 to 75	51 to 75	76 to 100
COCCn1ccnc1-c1nc(N[C@H]2C[C@@H](OC)C2)c2c(-c3ccccc3)c(-c3ccn(C)n3)sc2n1 [Compound 7, N-((1s,3s)-3-Methoxycyclobutyl)-2-(1-(2-methoxyethyl)-1H-imidazol-2-yl)-6-(1-methyl-1H-pyrazol-3-yl)-5-phenylthieno[2,3-d]pyrimidin-4-amine]	76 to 100	76 to 100	76 to 100	51 to 75	76 to 100	76 to 100	1 to 4.99	1 to 4.99	76 to 100	76 to 100	76 to 100	76 to 100	76 to 100	76 to 100	76 to 100
COCCn1ccnc1-c1nc(N[C@H]2C[C@@H](OC)C2)c2ccsc2n1 [Compound 9, N-((1s,3s)-3-Methoxycyclobutyl)-2-(1-(2-methoxyethyl)-1H-imidazol-2-yl)thieno[2,3-d]pyrimidin-4-amine]	76 to 100	76 to 100	76 to 100	51 to 75	76 to 100	76 to 100	5 to 10	> 10	76 to 100	76 to 100	76 to 100	76 to 100	76 to 100	76 to 100	1 to 25
